Data reported in ChEMBL document CHEMBL1201862, “PubChem BioAssay data set” (2004).
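Step 1: Grow cells in 96-well plates. Step 2: Expose to compound for 48 hours at 5 concentrations. Step 3: Interpolate endpoints linearly; if unreached, use highest concentration. GI50: concentration for 50% inhibition of growth.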 The source made the active and inactive calls. Rule as the data show it: active = GI50 up to about 1.1 µM and inactive = higher.

Tests used:
Experiment in all cases: NCI tumour cell line growth inhibition, 48 h
[1] = test system: MDA-N
[2] = test system: SW-620
[3] = test system: NCI-H460
[4] = test system: MDA-MB-231
[5] = test system: 786-0
[6] = test system: SK-MEL-5
[7] = test system: HCT-116
[8] = test system: SR
[9] = test system: OVCAR-3
[10] = test system: UACC-62
[11] = test system: NCI/ADR-RES
[12] = test system: SN12C
[13] = test system: ACHN
[14] = test system: NCI-H226
[15] = test system: MDA-MB-435
[16] = test system: NCI-H23
[17] = test system: LOX IMVI
[18] = test system: CAKI-1
[19] = test system: SF-268
[20] = test system: Malme-3M

Measured: GI50

O=S(=O)(O)c1cc(Cl)c(O)c2ncc(Cl)cc12
inactive: [1] > 100 µM | [2] 56.8 µM | [3] 55.5 µM | [4] > 100 µM | [5] 92 µM | [6] 84.3 µM | [7] 36.5 µM | [8] 32.2 µM | [9] 69.2 µM | [10] 50.1 µM | [11] 32.8 µM | [12] 64 µM | [13] 76 µM | [14] 73.1 µM | [15] > 100 µM | [16] 72.4 µM | [17] 31 µM | [18] > 100 µM

COc1ccc(N)c(C(=O)CCNC(C)=O)c1 [KINURENAMINE]
inactive: [1] > 100 µM | [2] > 100 µM | [3] > 100 µM | [4] > 100 µM | [5] > 100 µM | [6] > 100 µM | [7] > 100 µM | [8] > 100 µM | [9] > 100 µM | [10] > 100 µM | [11] > 100 µM | [12] > 100 µM | [19] > 100 µM | [13] > 100 µM | [14] > 100 µM | [15] > 100 µM | [16] > 100 µM | [17] > 100 µM | [18] > 100 µM

COC(=O)C(CCC1C=CCC1)/N=C\c1ccccc1 (configuration not stated)
inactive: [1] 49.9 µM | [2] > 100 µM | [3] 44 µM | [4] 68.9 µM | [5] 66.2 µM | [6] 32.1 µM | [7] 31.3 µM | [8] 38.3 µM | [9] 66.5 µM | [10] 74.8 µM | [11] 26.9 µM | [12] 60.4 µM | [19] 99.8 µM | [13] 73.5 µM | [14] 56.8 µM | [15] 60.3 µM | [16] 52.6 µM | [17] 76.7 µM | [18] 50.2 µM

OCC1OC(n2cnc3c2NC=NC[C@H]3O)CC1O (some centres not stated)
inactive: [1] > 500 µM | [3] 418 µM | [4] > 500 µM | [5] 455 µM | [6] 483 µM | [7] 483 µM | [8] 359 µM | [9] 497 µM | [10] 415 µM | [20] 458 µM | [11] 462 µM | [12] 483 µM | [19] 472 µM | [13] 400 µM | [14] 484 µM | [15] > 500 µM | [16] 486 µM | [17] 463 µM

CC1OC(O[C@H]2CC[C@]3(C)[C@H]4CC=C5[C@@H]6[C@@H](C)[C@H](C)CC[C@]6(C(=O)O)CC[C@@]5(C(=O)O)[C@]4(C)CC[C@H]3C2(C)C)C(O)C(O)C1O (some centres not stated)
inactive: [1] > 75 µM | [2] > 75 µM | [3] 50.1 µM | [4] > 75 µM | [5] > 75 µM | [6] > 75 µM | [7] > 75 µM | [8] > 75 µM | [9] > 75 µM | [10] > 75 µM | [11] > 75 µM | [12] > 75 µM | [19] > 75 µM | [13] > 75 µM | [15] > 75 µM | [16] > 75 µM | [17] > 75 µM | [18] > 75 µM

O=C(/C=C/c1ccsc1)c1ccco1
inactive: [1] 12.1 µM | [2] 7.55 µM | [3] 14.3 µM | [4] 12.7 µM | [5] 12.1 µM | [6] 15.4 µM | [7] 5.97 µM | [8] 2.28 µM | [9] 14 µM | [10] 14.6 µM | [11] 16.6 µM | [12] 14.6 µM | [19] 17.1 µM | [13] 10.8 µM | [14] 28.1 µM | [15] 20 µM | [16] 14.2 µM | [17] 3.1 µM | [18] 6.85 µM

CC(C)CCCC(C)[C@H]1CCC2[C@@H]3CCC4Cc5nc6c(nc5C[C@]4(C)C3CC[C@@]21C)CC1CC[C@@H]2C(C[C@@H](O)[C@@]3(C)C2C[C@@H]2OC4(CCC(C)CO4)C(C)[C@@H]23)[C@@]1(C)C6 (some centres not stated)
inactive: [1] > 100 µM | [2] > 100 µM | [3] > 100 µM | [4] > 100 µM | [5] > 100 µM | [6] > 100 µM | [7] > 100 µM | [8] > 100 µM | [9] > 100 µM | [10] > 100 µM | [11] > 100 µM | [12] > 100 µM | [19] > 100 µM | [13] > 100 µM | [14] > 100 µM | [15] > 100 µM | [16] > 100 µM

COC(=O)c1cc(C#N)[nH]c1-c1ccc(C)s1
inactive: [1] > 100 µM | [2] 43.9 µM | [3] 82.2 µM | [4] 38.6 µM | [5] 98.2 µM | [7] > 100 µM | [8] 63 µM | [9] 26.9 µM | [10] 51.3 µM | [11] 31.1 µM | [12] 63.2 µM | [19] 42.2 µM | [13] 41.3 µM | [14] 37.6 µM | [15] 91.4 µM | [16] 34 µM | [18] 41.9 µM

CCCCCCCCCCCCCCC(C(=O)[O-])[n+]1ccccc1 (configuration not stated)
inactive: [1] > 100 µM | [2] > 100 µM | [3] > 100 µM | [4] > 100 µM | [5] > 100 µM | [6] > 100 µM | [7] > 100 µM | [8] > 100 µM | [9] > 100 µM | [10] 77.3 µM | [11] > 100 µM | [12] 23.4 µM | [19] > 100 µM | [13] > 100 µM | [14] > 100 µM | [15] > 100 µM | [16] > 100 µM | [17] > 100 µM | [18] > 100 µM

Cc1c([N+](=O)[O-])oc2ccc3ccccc3c12
inactive: [1] 26.9 µM | [2] 20.2 µM | [3] 3.74 µM | [4] > 100 µM | [5] 18.1 µM | [6] 5.4 µM | [7] 4.26 µM | [8] 2.9 µM | [9] > 100 µM | [10] 56.1 µM | [11] 33.4 µM | [12] 12.5 µM | [19] 35.7 µM | [13] 16.2 µM | [14] > 100 µM | [15] 12.4 µM | [16] 11.2 µM | [17] 18.5 µM | [18] 11.9 µM

O=c1[nH]c(Cc2ccccc2)nc2c1sc1nc3ccccc3n12
inactive: [1] > 100 µM | [2] > 100 µM | [3] > 100 µM | [4] > 100 µM | [5] > 100 µM | [6] > 100 µM | [7] > 100 µM | [8] > 100 µM | [9] > 100 µM | [10] > 100 µM | [11] > 100 µM | [12] > 100 µM | [19] > 100 µM | [13] > 100 µM | [14] > 100 µM | [15] > 100 µM | [16] > 100 µM | [17] > 100 µM | [18] > 100 µM
